Data: publication PMC2920546, “Preclinical Pharmacology of BA-TPQ, a Novel Synthetic Iminoquinone Anticancer Agent” (Marine Drugs, 2010)

What was measured:
[1] = tested on: breast and prostate xenograft tumors; conditions: cited from earlier work
[2] = Binding to mouse plasma proteins (micro-ultrafiltration); format: in vitro ADME; conditions: non-Swiss albino, pooled mouse plasma
Method: The extent of binding to mouse plasma proteins by BA-TPQ was determined using a micro-ultrafiltration system as previously described. BA-TPQ was dissolved in methanol and added to pooled mouse plasma to yield final concentrations of 0.5 μM and 5.0 μM. Control solutions were prepared in methanol to account for non-specific binding of BA-TPQ to the filter membranes. Duplicate preparations of each concentration were incubated at 37 °C for 1 h, before being placed into the sample reservoirs of Amicon Centrifree® ultrafiltration tubes (30 kDa exclusion; Millipore Corporation, Bedford, MA, USA). The filter systems were then centrifuged at 3000 g (37 °C) for 30 min or until no solution remained in the reservoir. Aliquots were taken from each filtrate and analyzed using the validated HPLC method. The concentrations of the unfiltered plasma and control preparations were also determined using the same protocol and expressed as the “total drug” (T) present, while the amounts of BA-TPQ present in the filtrates were designated as “free drug” (F). The percentage of BA-TPQ bound to plasma proteins was calculated as follows:
(1) Percent Bound=[(T-F)/T]×100

[3] = Pharmacokinetics and tissue distribution in CD-1 mice; format: in vivo
Method: Female ICR/CD-1 (18–20 g) mice were purchased from Harlan Laboratories (Indianapolis, IN), and female nude mice (nu/nu; 4–6 weeks) were purchased from Frederick Cancer Research and Development Center (Frederick, MD). All animal use and care procedures were approved by the Institutional Animal Care and Use Committee (IACUC) of the University of Alabama at Birmingham. All animals were fed with commercial diet and water ad libitum and were on an alternating 12 h light/dark cycle.
CD-1 and nude mice were randomly divided into groups of three, and were dosed either intravenously (5 mg/kg) or intraperitoneally (10 mg/kg) with BA-TPQ in PEG 400:ethanol:0.9% saline (57.1%:14.3%:28.6%). Before dosing, and at 5, 15, 30, 60 min, and 2, 4, 8, and 24 h after dosing, groups of animals (three/time point) were anesthetized, and blood was collected from the retro-orbital sinus into heparinized tubes. Plasma was obtained by centrifuging the blood samples at 14,000 rpm for 15 min. BA-TPQ was then extracted from plasma and stored at −80 °C. The brain, heart, kidneys, liver, lungs, and spleen were also collected at the same time points during necropsy, blotted on Whatman No. 1 filter paper, trimmed of extraneous fat and connective tissue, weighed, and homogenized in phosphate-buffered saline. The resulting homogenates were stored at −80 °C until further processing and analysis. Urine and feces were collected for 24 hr from mice housed in metabolic cages. After collection, the cages were also washed twice with 200 μL PBS, and the washes were collected and analyzed separately. The total urine was determined as the amount from the urine plus washes 1 and 2. Feces were homogenized in PBS, then extracted using the same procedure used for tissues.
Six hundred microliters of acetonitrile was added to 200 μL of plasma, urine, cage washes (first and second), or tissue/feces homogenate in an Eppendorf tube to precipitate proteins. After centrifugation at 14,000 rpm for 10 min, the supernatant was transferred to a glass tube and evaporated to dryness using a TurboVap® LV Concentration Workstation (Caliper Lifesciences, Hopkinton, MA). The residue was reconstituted with 500 μL ethyl acetate, sonicated for 10 min, and vortexed for 10 sec. Samples were then centrifuged again and the resulting supernatant was transferred to a new glass tube and evaporated to dryness. Finally, samples were reconstituted in 100 μL mobile phase, and 50 μL was injected into the HPLC system for analysis.
The averages of the BA-TPQ concentration in plasma and tissues following intravenous and intraperitoneal administration to three animals per time point were used for pharmacokinetic analyses using a two-compartmental model and a non-compartment model, respectively. The following pharmacokinetic parameters were estimated using Phoenix WinNonlin 6.0 (Mountain View, CA): area under the concentration-time curve (AUC, h·μg/mL), half-life (T½, h), maximum concentration (Cmax, μg/mL), time of the maximum concentration (Tmax, h), and clearance (CL, mL/h/kg), as applicable. Bioavailability (X) was calculated as X= [AUCip × doseiv]/[AUCiv × doseip].

[4] = female, ICR/CD-1, mouse, liver, IV 5 mg/kg
[5] = female, ICR/CD-1, mouse, lungs, IP 10 mg/kg
[6] = female, ICR/CD-1, mouse, lungs, IV 5 mg/kg
[7] = female, mouse, brain, IP 10 mg/kg
[8] = female, mouse, brain, IV 5 mg/kg
[9] = female, mouse, heart, IP 10 mg/kg
[10] = female, mouse, heart, IV 5 mg/kg
[11] = female, mouse, kidneys, IP 10 mg/kg
[12] = female, mouse, kidneys, IV 5 mg/kg
[13] = female, mouse, liver, IP 10 mg/kg
[14] = female, mouse, lungs, IV 5 mg/kg
[15] = female, mouse, plasma, IP 10 mg/kg
[16] = female, mouse, plasma, IV 5 mg/kg
[17] = female, mouse, spleen, IP 10 mg/kg
[18] = female, mouse, spleen, IV 5 mg/kg

O=C1C(NCc2ccccc2)=CC2=NCCc3c[nH]c1c32 [BA-TPQ, 7-(benzylamino)-1,3,4,8-tetrahydropyrrolo[4,3,2-de]quinolin-8(1H)-one]
Death in mice on repeated dosing ([1]; 10 mg/kg, three times per week for up to six weeks): does not cause death | Toxicity in mice (weight loss) ([1]; especially at 10 mg/kg, 3 days/week for several weeks): systemic toxicity | Tumor growth in mouse xenograft models ([1]; prostate and breast cancer xenografts): inhibit tumor growth | fraction unbound at 1 h ([2]; mouse, read-out: Bound to plasma proteins (overall) (converted)): ~0.3 | fraction unbound at 1 h, 0.5 μM ([2]; mouse plasma, 0.5 μM, read-out: Bound to plasma proteins (converted)): 0.37 | fraction unbound at 1 h, 5 μM ([2]; mouse plasma, 5.0 μM, read-out: Bound to plasma proteins (converted)): 0.26 | Time of greatest plasma concentration ([3]; IP 10 mg/kg): 15 min | Cl ([3]; brain, IP 10 mg/kg): 2920 mL/min/kg | AUC [3, 4]: 650 ng·h/mL | Cmax [3, 4]: 690 ng/mL | clearance [3, 4]: 900 mL/min/kg | half-life [3, 4]: 39 min | AUC [3, 5]: 9150 ng·h/mL | Cmax [3, 5]: 12400 ng/mL | Tmax [3, 5]: 4.8 min | half-life [3, 5]: 30 min | AUC [3, 6]: 4980 ng·h/mL | clearance [3, 6]: 117 mL/min/kg | AUC [3, 7]: 190 ng·h/mL | Cmax [3, 7]: 180 ng/mL | Tmax [3, 7]: 15 min | half-life [3, 7]: 49.8 min | AUC [3, 8]: 220 ng·h/mL | Cmax [3, 8]: 750 ng/mL | clearance [3, 8]: 2630 mL/min/kg | half-life [3, 8]: 12.6 min | AUC [3, 9]: 4660 ng·h/mL | Cmax [3, 9]: 7240 ng/mL | Tmax [3, 9]: 4.8 min | half-life [3, 9]: 42.6 min | AUC [3, 10]: 1020 ng·h/mL | Cmax [3, 10]: 5340 ng/mL | clearance [3, 10]: 567 mL/min/kg | half-life [3, 10]: 7.8 min | AUC [3, 11]: 8060 ng·h/mL | Cmax [3, 11]: 8360 ng/mL | Tmax [3, 11]: 15 min | half-life [3, 11]: 28.8 min | AUC [3, 12]: 2830 ng·h/mL | Cmax [3, 12]: 9680 ng/mL | clearance [3, 12]: 200 mL/min/kg | half-life [3, 12]: 12 min | AUC [3, 13]: 150 ng·h/mL | Cmax [3, 13]: 470 ng/mL | Tmax [3, 13]: 4.8 min | half-life [3, 13]: 14.4 min | Cmax [3, 14]: 13000 ng/mL | half-life [3, 14]: 15.6 min | AUC [3, 15]: 110 ng·h/mL | Cmax [3, 15]: 110 ng/mL | Tmax [3, 15]: 4.8 min | half-life [3, 15]: 51.6 min | bioavailability ([3]; female, mouse, plasma, IP 10 mg/kg vs IV 5 mg/kg, read-out: Intraperitoneal bioavailability): 74% | AUC [3, 16]: 70 ng·h/mL | Cmax [3, 16]: 360 ng/mL | clearance [3, 16]: 8200 mL/min/kg | half-life [3, 16]: 8.4 min | AUC [3, 17]: 11300 ng·h/mL | Cmax [3, 17]: 23000 ng/mL | Tmax [3, 17]: 4.8 min | half-life [3, 17]: 24.6 min | AUC [3, 18]: 1800 ng·h/mL | Cmax [3, 18]: 4590 ng/mL | clearance [3, 18]: 317 mL/min/kg | half-life [3, 18]: 16.2 min | Cl ([3]; heart, IP 10 mg/kg): 130 mL/min/kg | Cl ([3]; kidneys, IP 10 mg/kg): 67 mL/min/kg | Cl ([3]; liver, IP 10 mg/kg): 4100 mL/min/kg | Cl ([3]; lungs, IP 10 mg/kg): 67 mL/min/kg | Cl ([3]; plasma, IP 10 mg/kg): 5750 mL/min/kg | Concentration in the plasma for the first 30 minutes ([3]; single bolus IV 5 mg/kg): up to 0.18 μg/mL | Cl ([3]; spleen, IP 10 mg/kg): 50 mL/min/kg
